{"source": "PubChem BioAssay AID2060627", "about": "(Molecular Pharmacology Branch, DTP, NCI, 2025);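 also: spheroids exposed to the agents for seven days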;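 as to viability, T/C: 100% = DMSO vehicle control viability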", "test_system": "156681-154-R-J1-PDC complex spheroid viability", "assay": "Anticancer human tumor 156681-154-R-J1-PDC patient-derived melanoma cell line growth inhibition [CLK]", "conditions": "for IC50: curve of first compound; for viability, T/C: stronger effect = lower value", "outline": "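Patient-derived tumor cells grown as complex spheroids with HUVEC endothelial cells and mesenchymal stem cells, treated with drug combinations. Concentrations descend in half-log steps from near clinical Cmax, or from 10 microM if Cmax unknown.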"}
{"smiles": "C=C(F)C(=O)N1CCN(c2nc(OCC3CCCN3C)nc3c2CCN(c2cccc4cccc(Cl)c24)C3)CC1CC#N", "note": "(configuration not stated) + CNC(=O)c1ccc(Nc2nc(OC3CCCC3)c3c(-c4ccc5nc(C)oc5c4)c[nH]c3n2)c(OC)c1", "values": [{"measurement": "IC50", "setting": "second compound 0.0316 µM", "result": 1.73, "unit": "µM"}, {"measurement": "IC50", "setting": "second compound 0.1 µM", "result": 1.11, "unit": "µM"}, {"measurement": "IC50", "setting": "second compound 0.316 µM", "result": 1.26, "unit": "µM"}, {"measurement": "IC50", "setting": "second compound 1 µM", "result": 1.02, "unit": "µM"}, {"measurement": "IC50", "setting": "second compound 3.16 µM", "result": "< 0.0316", "unit": "µM"}, {"measurement": "IC50", "setting": "second compound 10 µM", "result": "< 0.0316", "unit": "µM"}, {"measurement": "viability, T/C", "setting": "second compound 0.0316 µM, first compound 0.0316 µM", "result": 70.9, "unit": "%"}, {"measurement": "viability, T/C", "setting": "second compound 0.0316 µM, first compound 0.1 µM", "result": 92.6, "unit": "%"}, {"measurement": "viability, T/C", "setting": "second compound 0.0316 µM, first compound 0.316 µM", "result": 76.5, "unit": "%"}, {"measurement": "viability, T/C", "setting": "second compound 0.0316 µM, first compound 1 µM", "result": 87.4, "unit": "%"}, {"measurement": "viability, T/C", "setting": "second compound 0.0316 µM, first compound 3.16 µM", "result": 15.2, "unit": "%"}, {"measurement": "viability, T/C", "setting": "second compound 0.0316 µM, first compound 10 µM", "result": 0.17, "unit": "%"}, {"measurement": "viability, T/C", "setting": "second compound 0.1 µM, first compound 0.0316 µM", "result": 45.3, "unit": "%"}, {"measurement": "viability, T/C", "setting": "second compound 0.1 µM, first compound 0.1 µM", "result": 56.5, "unit": "%"}, {"measurement": "viability, T/C", "setting": "second compound 0.1 µM, first compound 0.316 µM", "result": 54.9, "unit": "%"}, {"measurement": "viability, T/C", "setting": "second compound 0.1 µM, first compound 1 µM", "result": 59, "unit": "%"}, {"measurement": "viability, T/C", "setting": "second compound 0.1 µM, first compound 3.16 µM", "result": 11.4, "unit": "%"}, {"measurement": "viability, T/C", "setting": "second compound 0.1 µM, first compound 10 µM", "result": 2.23, "unit": "%"}, {"measurement": "viability, T/C", "setting": "second compound 0.316 µM, first compound 0.0316 µM", "result": 46.7, "unit": "%"}, {"measurement": "viability, T/C", "setting": "second compound 0.316 µM, first compound 0.1 µM", "result": 49.5, "unit": "%"}, {"measurement": "viability, T/C", "setting": "second compound 0.316 µM, first compound 0.316 µM", "result": 77.3, "unit": "%"}, {"measurement": "viability, T/C", "setting": "second compound 0.316 µM, first compound 1 µM", "result": 66.5, "unit": "%"}, {"measurement": "viability, T/C", "setting": "second compound 0.316 µM, first compound 3.16 µM", "result": 10, "unit": "%"}, {"measurement": "viability, T/C", "setting": "second compound 0.316 µM, first compound 10 µM", "result": 0.09, "unit": "%"}, {"measurement": "viability, T/C", "setting": "second compound 1 µM, first compound 0.0316 µM", "result": 59.3, "unit": "%"}, {"measurement": "viability, T/C", "setting": "second compound 1 µM, first compound 0.1 µM", "result": 53.3, "unit": "%"}, {"measurement": "viability, T/C", "setting": "second compound 1 µM, first compound 0.316 µM", "result": 43.9, "unit": "%"}, {"measurement": "viability, T/C", "setting": "second compound 1 µM, first compound 1 µM", "result": 50.9, "unit": "%"}, {"measurement": "viability, T/C", "setting": "second compound 1 µM, first compound 3.16 µM", "result": 3.8, "unit": "%"}, {"measurement": "viability, T/C", "setting": "second compound 1 µM, first compound 10 µM", "result": 0.09, "unit": "%"}, {"measurement": "viability, T/C", "setting": "second compound 3.16 µM, first compound 0.0316 µM", "result": 48.2, "unit": "%"}, {"measurement": "viability, T/C", "setting": "second compound 3.16 µM, first compound 0.1 µM", "result": 33.5, "unit": "%"}, {"measurement": "viability, T/C", "setting": "second compound 3.16 µM, first compound 0.316 µM", "result": 37.1, "unit": "%"}, {"measurement": "viability, T/C", "setting": "second compound 3.16 µM, first compound 1 µM", "result": 42.6, "unit": "%"}, {"measurement": "viability, T/C", "setting": "second compound 3.16 µM, first compound 3.16 µM", "result": 2.84, "unit": "%"}, {"measurement": "viability, T/C", "setting": "second compound 3.16 µM, first compound 10 µM", "result": 0.11, "unit": "%"}, {"measurement": "viability, T/C", "setting": "second compound 10 µM, first compound 0.0316 µM", "result": 39.2, "unit": "%"}, {"measurement": "viability, T/C", "setting": "second compound 10 µM, first compound 0.1 µM", "result": 37, "unit": "%"}, {"measurement": "viability, T/C", "setting": "second compound 10 µM, first compound 0.316 µM", "result": 28.7, "unit": "%"}, {"measurement": "viability, T/C", "setting": "second compound 10 µM, first compound 1 µM", "result": 40.4, "unit": "%"}, {"measurement": "viability, T/C", "setting": "second compound 10 µM, first compound 3.16 µM", "result": 1.02, "unit": "%"}, {"measurement": "viability, T/C", "setting": "second compound 10 µM, first compound 10 µM", "result": 4.8, "unit": "%"}]}
